Test results from publication PMC8128204, “Development of 3-methyl/3-(morpholinomethyl)benzofuran derivatives as novel antitumor agents towards non-small cell lung cancer cells” (Journal of Enzyme Inhibition and Medicinal Chemistry, 2021).
In brackets after ≈: the same amount, converted by molar mass. Like-named read-outs stand apart in the source and are kept apart here.

Legend:
A549 cells [1] = assay: Cell cycle analysis (PI flow cytometry), A549; format: cell-based, human; details: A549, 24 h at IC50 concentration
Experimental: (§1) Lung cancer A549 cells were treated with benzofuran 4b, whereas NCI-H23 cells were treated […]
(§2) twice with ice-cold phosphate buffered saline (PBS). Subsequently, the treated cells were collected by centrifugation, fixed in ice-cold 70% (v/v) ethanol, washed with PBS, re-suspended with 100 μg/mL RNase, stained with 40 μg/mL PI, and analyzed by flow cytometry using FACS Calibur (Becton Dickinson, BD, Franklin Lakes, NJ, USA). The cell cycle distributions were calculated using CellQuest software 5.1 (Becton Dickinson). […]

WI-38 cell line = assay: Cytotoxic activity against non-tumorigenic WI-38 cell line; format: cell-based, human; details: for Mean tumour selectivity: S.I. WI-38/A549 and NCI-H23; for IC50: non-tumorigenic human lung WI-38 cell line
Source text: Antiproliferative agents are designed to inhibit the cellular growth of tumour cells selectively, while sparing the normal cells.

NCI-H23 cells [2] = assay: MTT anti-proliferative assay, NCI-H23; format: cell-based, human; details: mean ± SD of three experiments
Experimental: (§3) The antiproliferative activity of the synthesised derivatives of the 3-methylbenzofuran series (4a–d, 6a–c, 8a–c and 11) and the 3-(morpholinomethyl)benzofuran series (15a–c, 16a–b, 17a–b and 18) was evaluated against non-small cell lung carcinoma (NSCLC) A549 and NCI-H23 cell lines, following the procedures of the MTT assay. […] 1. Anti-proliferative action toward human […] cell lines […]
(§4) The two examined human non-small cell lung carcinoma cell lines (A549 and NCI-H23) have been obtained from American Type Culture Collection (ATCC). The cells were maintained in Dulbecco's modified Eagle's medium (DMEM) supplemented with 10% heat inactivated fetal calf serum (GIBCO), penicillin (100 U/ml) and streptomycin (100 µg/ml) at 37 °C in humidified atmosphere containing 5% CO2. […]
(§5) flask in 5 ml of culture medium. The anti-proliferative activity of the tested 3-methylbenzofurans (4a-d, 6a-c, 8a-c and 11) and 3-(morpholinomethyl)benzofurans (15a-c, 16a-b, 17a-b and 18) measured in vitro using the MTT assay. Briefly, cells were plated out in 96-well microtiter plate (0.5X10^4 cells/well) and incubated for 24 h before treatment with the tested benzofurans to allow cells to attach to the bottom of the well of the plate. Tested benzofuranswere were dissolved in DMSO at 1 mg/ml immediately before use and diluted to the appropriate volume just before addition to the cell culture. […]
(§6) added to the cells (three wells were prepared for each individual dose). Cells were incubated with […]
(§7) At the end of exposure, MTT […]
(§8) solution in PBS (5 mg/ml) was then added to all well including no cell blank and left to incubate for 90 min. The formation of formazan crystals were visually confirmed using phase contract microscopy. DMSO (100 µl/well) was added to dissolve the formazan crystals with shaking for 10 min after which the absorbance was read at 590 nm against no cell blanks on a microplate reader.
(§9) The relation between percent of surviving fraction and log drug concentration is plotted to get the survival curve for each cell line.

A549 cells [3] = assay: MTT anti-proliferative assay, A549; format: cell-based, human; details: mean ± SD of three experiments
Experimental: as §3, §4, §5, §6, §7, §8, §9

VEGFR-2 = VEGFR-2 (Homo sapiens, UniProt P35968); assay: VEGFR-2 kinase inhibitory assay (VEGFR2(KDR) Kinase Assay Kit)
Source text: CA, USA), according to the manufacturer’s instructions.

A549 cells [4] = assay: Annexin V-FITC/PI apoptosis assay, A549; format: cell-based, human; details: A549, at IC50 concentration; control 1.37%
Experimental: (§10) The apoptotic effect of the three benzofurans (4b, 15a and 16a) was evaluated using Annexin VFITC/PI (AV/PI) dual staining assay to validate if their observed cytotoxic effect is due to non-specific necrosis or physiological apoptosis. […] Moreover, the apoptotic effects of 3-(morpholinomethyl)benzofuran derivatives 15a and 16a were evaluated in NCI-H23 cancer cell line.
as §1
(§11) twice with ice-cold phosphate buffered saline (PBS). Subsequently, the treated cells were collected by centrifugation, fixed in ice-cold 70% (v/v) ethanol, washed with PBS, re-suspended with 100 μg/mL RNase, stained with 40 μg/mL PI, and analyzed by flow cytometry using FACS Calibur (Becton Dickinson, BD, Franklin Lakes, NJ, USA). The cell cycle distributions were calculated using CellQuest software 5.1 (Becton Dickinson).
(§12) 3. Annexin V-FITC Apoptosis Assay […]
(§13) Cells were then rinsed in binding buffer and resuspended in 150 μL of binding buffer with the addition of 1 μL of DAPI (1 μg/μL in PBS). Cells were then analyzed using the flow cytometer BD FACS Canto II and the results were interpreted with FlowJo7.6.4 software (Tree Star, Ashland, 4. VEGFR-2 Kinase Inhibitory Activity […]

[5] = tested on: M. tuberculosis ATCC 27294; assay: Microplate Alamar Blue Assay, anti-tubercular activity; format: cell-based; details: MABA, 7 days
NCI-H23 cells [6] = assay: Annexin V-FITC/PI apoptosis assay, NCI-H23; format: cell-based, human; details: NCI-H23, at IC50 concentration; control 2.09%
Experimental: as §10, §1, §11, §12, §13

NCI-H23 cells [7] = assay: Cell cycle analysis (PI flow cytometry), NCI-H23; format: cell-based, human; details: NCI-H23, 24 h at IC50 concentration; for S phase, fold vs control: attenuated; for G2/M phase cell population, fold vs control / sub-G1 phase cell population, fold vs control: augmentation; for G0–G1 phase, fold vs control: reduced
Experimental: as §1, §2

[8] = Mycobacterium tuberculosis, ATCC27294, 168 h, read-out: MIC

Chain of VEGFR-2 (P35968 20-1356): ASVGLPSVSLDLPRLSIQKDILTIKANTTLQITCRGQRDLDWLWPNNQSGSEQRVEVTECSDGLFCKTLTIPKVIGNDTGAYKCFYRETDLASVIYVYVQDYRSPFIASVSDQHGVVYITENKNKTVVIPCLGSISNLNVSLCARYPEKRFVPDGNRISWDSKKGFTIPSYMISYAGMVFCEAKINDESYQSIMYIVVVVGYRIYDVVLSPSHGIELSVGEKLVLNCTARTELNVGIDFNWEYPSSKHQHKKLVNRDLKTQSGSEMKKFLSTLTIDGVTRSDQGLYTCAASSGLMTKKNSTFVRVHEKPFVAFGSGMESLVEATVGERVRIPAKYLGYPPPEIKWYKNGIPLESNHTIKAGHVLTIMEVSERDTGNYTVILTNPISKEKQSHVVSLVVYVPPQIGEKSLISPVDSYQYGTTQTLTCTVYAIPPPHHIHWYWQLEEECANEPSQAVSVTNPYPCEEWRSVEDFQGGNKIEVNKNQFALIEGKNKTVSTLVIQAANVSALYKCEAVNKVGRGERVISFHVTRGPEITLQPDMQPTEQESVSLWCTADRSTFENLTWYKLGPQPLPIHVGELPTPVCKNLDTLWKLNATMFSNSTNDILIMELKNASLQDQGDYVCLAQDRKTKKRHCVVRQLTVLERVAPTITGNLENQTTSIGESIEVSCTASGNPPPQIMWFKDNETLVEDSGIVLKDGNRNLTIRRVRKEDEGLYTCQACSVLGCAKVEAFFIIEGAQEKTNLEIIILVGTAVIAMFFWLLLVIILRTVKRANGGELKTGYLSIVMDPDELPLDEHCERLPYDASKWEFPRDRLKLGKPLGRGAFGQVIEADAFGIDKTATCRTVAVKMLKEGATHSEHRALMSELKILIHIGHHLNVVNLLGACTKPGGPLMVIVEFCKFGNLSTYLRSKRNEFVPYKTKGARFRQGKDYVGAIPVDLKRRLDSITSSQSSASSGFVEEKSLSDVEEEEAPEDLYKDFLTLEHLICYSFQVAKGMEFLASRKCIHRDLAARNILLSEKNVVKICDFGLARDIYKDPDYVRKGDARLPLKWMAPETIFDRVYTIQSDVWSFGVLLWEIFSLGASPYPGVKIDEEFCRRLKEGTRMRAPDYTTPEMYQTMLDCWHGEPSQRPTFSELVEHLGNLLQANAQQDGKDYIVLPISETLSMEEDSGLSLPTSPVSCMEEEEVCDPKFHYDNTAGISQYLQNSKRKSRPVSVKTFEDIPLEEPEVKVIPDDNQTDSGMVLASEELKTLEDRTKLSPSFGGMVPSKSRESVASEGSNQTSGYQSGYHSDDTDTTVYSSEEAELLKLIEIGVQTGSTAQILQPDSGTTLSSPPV

| Structure (SMILES) | S phase, fold vs control (A549 cells [1]; attenuated) [fold] | G2/M phase cell population, fold vs control (A549 cells [1]; augmentation) [fold] | sub-G1 phase cell population, fold vs control (A549 cells [1]; augmentation) [fold] | G0–G1 phase, fold vs control (A549 cells [1]; reduced) [fold] | Mean tumour selectivity (WI-38 cell line) | IC50 (WI-38 cell line) [µM] | IC50 (NCI-H23 cells [2]; Homo sapiens, NCI-H23, 48 h) [µM] | IC50 (A549 cells [3]; Homo sapiens, A549, 48 h) [µM] | IC50 (VEGFR-2) [µM] | apoptosis (total) (A549 cells [4]) [%] | melting point [°C] | MIC [5] [µg/mL] | MIC [5, 8] [µg/mL] | total apoptosis (NCI-H23 cells [6]) [%] | IC50 (NCI-H23 cells [2]; 48 h) [µM] | IC50 (A549 cells [3]; 48 h) [µM] | S phase, fold vs control (NCI-H23 cells [7]) [fold] | G2/M phase cell population, fold vs control (NCI-H23 cells [7]) [fold] | sub-G1 phase cell population, fold vs control (NCI-H23 cells [7]) [fold] | G0–G1 phase, fold vs control (NCI-H23 cells [7]) [fold] |
| --- | --- | --- | --- | --- | --- | --- | --- | --- | --- | --- | --- | --- | --- | --- | --- | --- | --- | --- | --- | --- |
| COc1ccc(NC(=S)NNC(=O)c2oc3ccccc3c2C)cc1 [Compound 4b, N-(4-Methoxyphenyl)-2-(3-methylbenzofuran-2-carbonyl)hydrazine-1-carbothioamide] | 0.46 | 2.67 | 21.76 | 0.67 | 5.3 | 19.5 ± 1.18 | 5.9 ± 0.29 | 1.48 ± 0.08 | 0.078 ± 0.0046 | 42.05 | 190 to 193 | 500 (≈ 1410 µM) | 250 (≈ 703 µM) | – | – | – | – | – | – | – |
| COc1cccc(NC(=S)NNC(=O)c2oc3ccccc3c2CN2CCOCC2)c1 [Compound 15a, N-(3-Methoxyphenyl)-2-(3-(morpholinomethyl)benzofuran-2-carbonyl)hydrazine-1-carbothioamide] | – | – | – | – | 8.4 | 32.8 ± 1.98 | 2.52 ± 0.13 | 5.27 ± 0.29 | 0.133 ± 0.0078 | – | 190 to 192 | – | 62.5 (≈ 142 µM) | 34.59 | 2.52 ± 0.13 | 5.27 ± 0.29 | 0.50 | 5.33 | 13.13 | 0.56 |
| COc1cccc(NC(=O)NNC(=O)c2oc3ccccc3c2CN2CCOCC2)c1 [Compound 16a, N-(3-Methoxyphenyl)-2-(3-(morpholinomethyl)benzofuran-2-carbonyl)hydrazine-1-carboxamide] | – | – | – | – | 12.9 | 12.9 ± 0.78 | 0.49 ± 0.02 | 1.52 | 0.0454 ± 0.0027 | – | – | – | 125 (≈ 294 µM) | 36.81 | – | 1.5 ± 0.08 | 0.51 | 6.90 | 12.54 | 0.47 |
| COc1ccc(C=NNC(=O)c2oc3ccccc3c2CN2CCOCC2)cc1 [Compound 17b, N'-(4-Methoxybenzylidene)-3-(morpholinomethyl)benzofuran-2-carbohydrazide] | – | – | – | – | – | – | 3.04 ± 0.15 | 10.8 ± 0.59 | – | – | 200 | – | – | – | – | – | – | – | – | – |
| O=C(NN=C1CCCc2ccccc21)c1oc2ccccc2c1CN1CCOCC1 [Compound 18, N'-(3,4-Dihydronaphthalen-1(2H)-ylidene)-3-(morpholinomethyl)benzofuran-2-carbohydrazide] | – | – | – | – | – | – | 29.8 ± 1.49 | 3.7 ± 0.2 | – | – | 200 | – | – | – | – | – | – | – | – | – |
| NNC(=O)c1ccncc1 [INH, Isoniazid, reference compound] | – | – | – | – | – | – | – | – | – | – | – | – | 0.24 (≈ 1.75 µM) | – | – | – | – | – | – | – |
